Assays:
[1] = tested on: BALB/c DCs; experiment: DC production of pro-inflammatory cytokines by ELISA; type: cell-based, mouse
Description: FIG. 3A is a graph showing WT, TLR4^−/−, or MyD88^−/− BALB/c DCs (2×10^5/well) were stimulated with LPS (100 ng/mL), HS (100 μg/mL), or Pam3CSK4 (2 μg/mL), or left unstimulated (media) for 24 hours, and measured for surface expression of co-stimulatory molecules CD40 and CD80 by FACS analysis. FIGS. 3B and 3C are graphs showing WT, MyD88^−/−, and TLR4^−/− BALB/c cultured DCs were co-cultured with media alone, LPS, HS, or Pam3CSK4 as in (A) and culture supernatants were tested for IL-6 (B) and IL-12 (C) by ELISA. Data are representative of three independent experiments; *p<0.05 compared with media alone.
Lethally irradiated BALB/c recipients received either 1×10^7 B10.D2 TCD-BM only (Allo-BM), 1×10^7 B10.D2 TCD-BM and 5×10^6 B10.D2 LCs (Allo-BM+LC), or 1×10^7 BALB/c TCD-BM and 5×10^6 BALB/c LCs (Syn-BM+LC). FIG. 6A is a graph showing HS concentrations following transplantation as determined by ELISA at the indicated time points; n=2-5 samples per time point; *p<0.05 comparing Allo-BM+LC and Allo-BM at the indicated time point. FIG. 6B is a graph showing the half maximal effective concentration (EC50) of HS on DC stimulation, BALB/c DCs (2×10^5/well) following 24 hr of culture with differing concentrations of HS in triplicate and IL-6 production was tested by ELISA. Results are representative of three independent experiments.
FIG. 13 is a graph showing WT, MyD88^−/−, and TLR4^−/− BALB/c cultured DCs that were co-cultured with media alone, LPS, HS, or Pam3CSK4 and tested for TNF-α as determined by ELISA assay.
Cytokine analysis: Cell culture supernatants were obtained from DC cultures or T cell proliferation assays and assayed for IL-6, IL-12 and IFN-γ by ELISA (BD Biosciences) according to the manufacturer's standard protocols. HEK 293 supernatants were tested for human IL-8 by ELISA (BioLegend, San Diego, United States).
To determine if the in vivo concentrations of HS were sufficient to cause DC activation, the production of IL-6 by cultured DCs in response to a range of HS concentrations was tested (FIG. 6B).

[2] = target: T1, human TLR4 (Homo sapiens, UniProt O00206); experiment: NF-κB dual luciferase reporter assay in HEK TLR4-MD2-CD14 cells; type: cell-based; conditions: HS 100 μg/mL, 6 hours, TLR4 expressing cell lines
T1 construct: expressed in transfected cells; host or cells: HEK 293 (gift from Dr. Michael Fessler, NIEHS)
T1 sequence (O00206 24-839): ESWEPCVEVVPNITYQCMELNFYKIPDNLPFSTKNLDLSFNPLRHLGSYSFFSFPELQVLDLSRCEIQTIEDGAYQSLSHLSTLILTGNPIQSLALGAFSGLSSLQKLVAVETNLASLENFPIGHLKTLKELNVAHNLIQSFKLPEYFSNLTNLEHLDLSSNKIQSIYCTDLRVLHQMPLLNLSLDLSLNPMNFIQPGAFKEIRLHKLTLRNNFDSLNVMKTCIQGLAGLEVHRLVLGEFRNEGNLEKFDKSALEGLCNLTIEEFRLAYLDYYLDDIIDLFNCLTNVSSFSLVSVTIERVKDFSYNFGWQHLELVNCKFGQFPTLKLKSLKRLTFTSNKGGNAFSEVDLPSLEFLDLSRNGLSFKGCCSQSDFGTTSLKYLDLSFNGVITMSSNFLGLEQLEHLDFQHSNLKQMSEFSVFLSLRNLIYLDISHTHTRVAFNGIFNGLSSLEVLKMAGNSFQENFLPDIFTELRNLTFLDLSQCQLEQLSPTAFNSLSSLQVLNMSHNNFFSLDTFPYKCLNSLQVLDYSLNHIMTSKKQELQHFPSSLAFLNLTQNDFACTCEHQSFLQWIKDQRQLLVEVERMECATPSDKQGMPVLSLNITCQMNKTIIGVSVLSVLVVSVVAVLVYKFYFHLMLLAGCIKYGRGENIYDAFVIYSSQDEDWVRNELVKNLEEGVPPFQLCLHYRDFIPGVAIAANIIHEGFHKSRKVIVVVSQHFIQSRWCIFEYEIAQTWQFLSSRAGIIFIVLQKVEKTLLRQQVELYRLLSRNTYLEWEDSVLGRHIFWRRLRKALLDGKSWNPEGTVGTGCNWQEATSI
T1 sequence (Q9Y6Y9 17-160 partner limits assumed): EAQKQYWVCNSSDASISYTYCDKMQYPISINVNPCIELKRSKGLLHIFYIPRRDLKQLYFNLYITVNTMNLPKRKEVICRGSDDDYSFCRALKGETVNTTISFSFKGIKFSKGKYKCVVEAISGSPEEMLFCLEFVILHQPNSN
Description: HEK cell lines stably expressing CD14 and MD2 alone (HEK MD2-CD14), or co-expressed with human TLR2 (HEK TLR2-MD2-CD14) or human TLR4 (HEK TLR4-MD2-CD14) were transfected with a plasmid encoding firefly luciferase (F) under control of the NF-κB promoter along with a plasmid expressing Renilla luciferase (R) under control of the thymidine kinase promoter as a transfection control. Cell lines were cultured for 6 hours with media alone, LPS (100 ng/mL), HS (100 μg/mL), or Pam3CSK4 (2 μg/mL). FIG. 5A is a graph showing the ratio of F/R was measured by dual luciferase reporter assay to determine NF-κB activation of lysed cells, *p<0.05 compared with media alone. FIG. 5B is a graph showing results supernatants analyzed for IL-8 production by ELISA. […]
Luciferase reporter assay: Luciferase activity was measured using the Dual-Luciferase Reporter Assay (Promega, Madison, Wis., USA) according to the manufacture's recommended protocol. Luminescence was measured using an LMax Luminometer (Molecular Devices, Sunnyvale, United States).
A heterodimer of different TLRs is required for some PAMPs. […] The ratio of luminescence produced by firefly luciferase to Renilla luciferase (F/R) was then measured in response to media alone, LPS, HS, and Pam3CSK4. The production of IL-8, which is downstream of NF-κB activation, by ELISA was also measured. […]

[3] = BALB/c DCs 2×10^5/well, 24 hr culture

## heparan sulfate [HS]
[1]; [3]
  concentration achieving maximal response (IL-6 production by DCs): 12.5 µg/mL
  half maximal effective concentration (EC50) on DC stimulation (IL-6 production): approximately 4 μg/mL
[1]; HS 100 μg/mL, 24 h
  production of IL-6 and IL-12 from TLR4−/− or MyD88−/− DCs: but not from TLR4^−/− or MyD88^−/− DCs
[1]; HS 100 μg/mL, 24 h, not inhibited by PMB
  production of IL-6 and IL-12 from WT DCs: stimulated DCs to produce
[1]; TLR4- and MyD88-dependent
  DC expression of TNF-α: up-regulate
[2]
  NF-κB activation (ratio F/R): caused NF-κB activation

— patent publication US20160109459A1, “Compositions And Methods For Heparan Sulfate As A Biomarker For Transplant Rejection” (Duke University, priority 2012, published 2016)
